Experimental data from PubChem BioAssay AID2060602 (Molecular Pharmacology Branch, DTP, NCI, 2025).
Several values for one entry are separate records, joined by “and”; a condition that tells them apart may be missing. Equal values may be shown once.

Test system: 648629-189-R-J1-PDC complex spheroids viability
Assay: Anticancer human tumor 648629-189-R-J1-PDC patient-derived bladder carcinoma cell line growth inhibition [CLK]
Details: for viability, T/C: stronger effect = lower value; active means viability on the fitted dose curve at most 10% of control; inactive means the rest
Outline: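 Patient-derived tumor cells grown as complex spheroids with HUVEC endothelial cells and mesenchymal stem cells, treated with drug combinations. Concentrations descend in half-log steps from near clinical Cmax, or from 10 microM if Cmax unknown.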

[1] = curve of first compound, second compound 0.0316 µM
[2] = curve of first compound, second compound 0.1 µM
[3] = curve of first compound, second compound 0.316 µM
[4] = curve of first compound, second compound 1 µM
[5] = curve of first compound, second compound 3.16 µM
[6] = curve of first compound, second compound 10 µM
[7] = second compound 0.0316 µM, first compound 0.0316 µM
[8] = second compound 0.0316 µM, first compound 0.1 µM
[9] = second compound 0.1 µM, first compound 0.0316 µM
[10] = second compound 0.1 µM, first compound 0.1 µM
[11] = second compound 0.316 µM, first compound 0.0316 µM
[12] = second compound 0.316 µM, first compound 0.1 µM
[13] = second compound 1 µM, first compound 0.0316 µM
[14] = second compound 1 µM, first compound 0.1 µM
[15] = second compound 3.16 µM, first compound 0.0316 µM
[16] = second compound 3.16 µM, first compound 0.1 µM
[17] = second compound 10 µM, first compound 0.0316 µM
[18] = second compound 10 µM, first compound 0.1 µM
[19] = second compound 0.0316 µM, first compound 0.316 µM
[20] = second compound 0.0316 µM, first compound 1 µM
[21] = second compound 0.0316 µM, first compound 3.16 µM
[22] = second compound 0.0316 µM, first compound 10 µM
[23] = second compound 0.1 µM, first compound 0.316 µM
[24] = second compound 0.1 µM, first compound 1 µM
[25] = second compound 0.1 µM, first compound 3.16 µM
[26] = second compound 0.1 µM, first compound 10 µM
[27] = second compound 0.316 µM, first compound 0.316 µM
[28] = second compound 0.316 µM, first compound 1 µM
[29] = second compound 0.316 µM, first compound 3.16 µM
[30] = second compound 0.316 µM, first compound 10 µM
[31] = second compound 1 µM, first compound 0.316 µM
[32] = second compound 1 µM, first compound 1 µM
[33] = second compound 1 µM, first compound 3.16 µM
[34] = second compound 1 µM, first compound 10 µM
[35] = second compound 3.16 µM, first compound 0.316 µM
[36] = second compound 3.16 µM, first compound 1 µM
[37] = second compound 3.16 µM, first compound 3.16 µM
[38] = second compound 3.16 µM, first compound 10 µM
[39] = second compound 10 µM, first compound 0.316 µM
[40] = second compound 10 µM, first compound 1 µM
[41] = second compound 10 µM, first compound 3.16 µM
[42] = second compound 10 µM, first compound 10 µM
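Wherever viability, T/C is given: drug exposure lasted seven days before viability readout; 100% = DMSO vehicle control wells.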

Cn1ncnc1[C@H]1c2n[nH]c(=O)c3cc(F)cc(c23)N[C@@H]1c1ccc(F)cc1 + CNC(=O)c1ccc(Nc2nc(OC3CCCC3)c3c(-c4ccc5nc(C)oc5c4)c[nH]c3n2)c(OC)c1
inactive: viability, T/C (second compound 0.0316 µM, first compound 0.000316 µM) 112% | viability, T/C (second compound 0.0316 µM, first compound 0.001 µM) 98.1% | viability, T/C (second compound 0.0316 µM, first compound 0.00316 µM) 95.4% | viability, T/C (second compound 0.0316 µM, first compound 0.01 µM) 102% | viability, T/C [7] 81.4% | viability, T/C [8] 73.6% | viability, T/C (second compound 0.1 µM, first compound 0.000316 µM) 86% | viability, T/C (second compound 0.1 µM, first compound 0.001 µM) 86.3% | viability, T/C (second compound 0.1 µM, first compound 0.00316 µM) 81.5% | viability, T/C (second compound 0.1 µM, first compound 0.01 µM) 83% | viability, T/C [9] 68.3% | viability, T/C [10] 75.8% | viability, T/C (second compound 0.316 µM, first compound 0.000316 µM) 25.7% | viability, T/C (second compound 0.316 µM, first compound 0.001 µM) 25.6% | viability, T/C (second compound 0.316 µM, first compound 0.00316 µM) 30% | viability, T/C (second compound 0.316 µM, first compound 0.01 µM) 21% | viability, T/C [11] 22.4% | viability, T/C [12] 21.3% | viability, T/C (second compound 1 µM, first compound 0.000316 µM) 18.4% | viability, T/C (second compound 1 µM, first compound 0.001 µM) 18.9% | viability, T/C (second compound 1 µM, first compound 0.00316 µM) 17.2% | viability, T/C (second compound 1 µM, first compound 0.01 µM) 18.1% | viability, T/C [13] 15.6% | viability, T/C [14] 12.5% | viability, T/C (second compound 3.16 µM, first compound 0.000316 µM) 19.2% | viability, T/C (second compound 3.16 µM, first compound 0.001 µM) 18.4% | viability, T/C (second compound 3.16 µM, first compound 0.00316 µM) 19.3% | viability, T/C (second compound 3.16 µM, first compound 0.01 µM) 16.3% | viability, T/C [15] 17% | viability, T/C [16] 16.6% | viability, T/C (second compound 10 µM, first compound 0.000316 µM) 18.1% | viability, T/C (second compound 10 µM, first compound 0.001 µM) 19.5% | viability, T/C (second compound 10 µM, first compound 0.00316 µM) 20.3% | viability, T/C (second compound 10 µM, first compound 0.01 µM) 17.7% | viability, T/C [17] 19.4% | viability, T/C [18] 14.8%
> 100 nM: IC50 [1] | IC50 [2]
< 0.316 nM: IC50 [3] | IC50 [4] | IC50 [5] | IC50 [6]

CC1COCCN1c1cc(C2(S(C)(=N)=O)CC2)nc(-c2ccnc3[nH]ccc23)n1 (stereo not given) + CN1CCN(c2cc(C(=O)Nc3cc4cc(-c5cnn(C)c5)ccc4cn3)ccn2)CC1
inactive: viability, T/C [7] 115% | viability, T/C [8] 116% | viability, T/C [19] 103% | viability, T/C [20] 97.1% | viability, T/C [21] 59.5% | viability, T/C [22] 27.5% | viability, T/C [9] 109% | viability, T/C [10] 95.4% | viability, T/C [23] 96.8% | viability, T/C [24] 83% | viability, T/C [25] 54.3% | viability, T/C [26] 26.5% | viability, T/C [11] 33.3% | viability, T/C [12] 45.9% | viability, T/C [27] 39.8% | viability, T/C [28] 34.8% | viability, T/C [29] 19.1%
3950 nM: IC50 [2]
4570 nM: IC50 [1]
< 31.6 nM: IC50 [3] | IC50 [4] | IC50 [5] | IC50 [6]
active: viability, T/C [30] 9.89% | viability, T/C [13] 0.39% | viability, T/C [14] 0.82% | viability, T/C [31] 0.84% | viability, T/C [32] 0.41% | viability, T/C [33] 0.31% | viability, T/C [34] 0.11% | viability, T/C [15] 1.1% | viability, T/C [16] 0.7% | viability, T/C [35] 0.19% | viability, T/C [36] 0.15% | viability, T/C [37] 0.15% | viability, T/C [38] 1.68% | viability, T/C [17] 0.16% | viability, T/C [18] 0.16% | viability, T/C [39] 0.22% | viability, T/C [40] 0.22% | viability, T/C [41] 0.22% | viability, T/C [42] 0.19%

COC1C=CCC(C)C(C)S(=O)(=O)NC(=O)c2ccc3c(c2)N(CC2CCC21)CC1(CCCc2cc(Cl)ccc21)CO3 (stereo not given) + CNC(=O)c1ccc(Nc2nc(OC3CCCC3)c3c(-c4ccc5nc(C)oc5c4)c[nH]c3n2)c(OC)c1
active: viability, T/C [22] 4.12% | viability, T/C [26] 4.69% | viability, T/C [29] 8.44% | viability, T/C [30] 2.86% | viability, T/C [33] 6.11% | viability, T/C [34] 3.77% | viability, T/C [37] 6.62% | viability, T/C [38] 3.31% | viability, T/C [41] 6.23% | viability, T/C [42] 3.81%
1790 nM: IC50 [1]
inactive: viability, T/C [7] 107% | viability, T/C [8] 89% | viability, T/C [19] 91.6% | viability, T/C [20] 80.7% | viability, T/C [21] 20.1% | viability, T/C [9] 82.8% | viability, T/C [10] 97.5% | viability, T/C [23] 83.8% | viability, T/C [24] 88.5% | viability, T/C [25] 16.3% | viability, T/C [11] 27.2% | viability, T/C [12] 23.6% | viability, T/C [27] 24.2% | viability, T/C [28] 14% | viability, T/C [13] 19.5% | viability, T/C [14] 20.7% | viability, T/C [31] 16.3% | viability, T/C [32] 10.1% | viability, T/C [15] 21.5% | viability, T/C [16] 18.3% | viability, T/C [35] 16.7% | viability, T/C [36] 10.5% | viability, T/C [17] 17.1% | viability, T/C [18] 16.5% | viability, T/C [39] 15.2% | viability, T/C [40] 11.4%
1840 nM: IC50 [2]
< 31.6 nM: IC50 [3] | IC50 [4] | IC50 [5] | IC50 [6]

CC(CO)NC(=O)c1cc(-c2ccc(Cl)cc2)nn(-c2cnn(C)c2)c1=O (stereo not given) + CN1CCN(c2cc(C(=O)Nc3cc4cc(-c5cnn(C)c5)ccc4cn3)ccn2)CC1
< 31.6 nM: IC50 [3] | IC50 [4] | IC50 [5] | IC50 [6]
inactive: viability, T/C [7] 109% | viability, T/C [8] 109% | viability, T/C [19] 99.3% | viability, T/C [20] 125% | viability, T/C [21] 109% | viability, T/C [22] 85.6% | viability, T/C [9] 103% | viability, T/C [10] 100% | viability, T/C [23] 94.5% | viability, T/C [24] 114% | viability, T/C [25] 105% | viability, T/C [26] 84.7% | viability, T/C [11] 38.1% | viability, T/C [12] 51.2% | viability, T/C [27] 44.7% | viability, T/C [28] 56.9% | viability, T/C [29] 47.2% | viability, T/C [30] 43.6%
active: viability, T/C [13] 0.43% | viability, T/C [14] 0.37% | viability, T/C [31] 0.32% | viability, T/C [32] 0.48% | viability, T/C [33] 0.38% | viability, T/C [34] 0.26% | viability, T/C [15] 0.14% | viability, T/C [16] 0.17% | viability, T/C [35] 0.16% | viability, T/C [36] 0.18% | viability, T/C [37] 0.17% | viability, T/C [38] 0.18% | viability, T/C [17] 0.22% | viability, T/C [18] 0.25% | viability, T/C [39] 0.22% | viability, T/C [40] 0.23% | viability, T/C [41] 0.24% | viability, T/C [42] 0.22%
> 10000 nM: IC50 [1] | IC50 [2]

C#Cc1c(F)ccc2cc(O)cc(-c3ncc4c(N5CC6CCC(C5)N6)nc(OCC56CCCN5CC(F)C6)nc4c3F)c12 (stereo not given)
inactive: viability, T/C (compound 0.0316 µM) 97.9% and 109% | viability, T/C (compound 0.1 µM) 94.2% and 99.3% | viability, T/C (compound 0.316 µM) 91.3% and 98% | viability, T/C (compound 1 µM) 91% and 107% | viability, T/C (compound 3.16 µM) 94.4% and 111% | viability, T/C (compound 10 µM) 88.9% and 101%
> 10000 nM: IC50 (curve of compound)
